Laboratory results: US20220062255A1 (PRILENIA NEUROTHERAPEUTICS LTD., priority 2016, published 2022)
pKi: −log10 of the molar value. Several values for one entry are separate records, joined by “and”; a condition that tells them apart may be missing. Equal values may be shown once. Read-outs that look alike come from different tables or passages of the source.

Assays:
[1] = system: BDNF secretion from B104 neuroblastoma cells; assay: BDNF in-situ ELISA, B104 neuroblastoma cells; type: cell-based, rat; details: together with pridopidine
[2] = biological target: T1, Sigma-1 Receptor (S1R) (Homo sapiens, UniProt Q99720); assay: In-vitro binding assay, Sigma-1 receptor; details: Cheng Prusoff; Eurofins Panlabs; source Johnston et al. 2019 and NC20-PHARM-2
T1 construct: Eurofins Panlabs Taiwan; Ltd. (performed the assay)
T1 sequence (Q99720 whole entry, species assumed): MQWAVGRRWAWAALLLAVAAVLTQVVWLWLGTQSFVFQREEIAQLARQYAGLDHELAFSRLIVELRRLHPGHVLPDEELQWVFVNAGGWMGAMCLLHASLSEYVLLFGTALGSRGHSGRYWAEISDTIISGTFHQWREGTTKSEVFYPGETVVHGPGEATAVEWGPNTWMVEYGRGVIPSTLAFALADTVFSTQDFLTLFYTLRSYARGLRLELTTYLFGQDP
Description: (§1) In-vitro binding assays performed at Eurofins Panlabs Taiwan. Ltd. Specific ligand binding was determined in the presence of an excess of unlabelled ligand.

[3] = biological target: T2, Sigma-2 receptor (S2R) (Homo sapiens, UniProt Q5BJF2); assay: In-vitro binding assay, Sigma-2 receptor; details: Cheng Prusoff; Eurofins Panlabs; source Johnston et al. 2019 and NC20-PHARM-2
T2 construct: Eurofins Panlabs Taiwan; Ltd. (performed the assay)
T2 sequence (Q5BJF2 whole entry, species assumed): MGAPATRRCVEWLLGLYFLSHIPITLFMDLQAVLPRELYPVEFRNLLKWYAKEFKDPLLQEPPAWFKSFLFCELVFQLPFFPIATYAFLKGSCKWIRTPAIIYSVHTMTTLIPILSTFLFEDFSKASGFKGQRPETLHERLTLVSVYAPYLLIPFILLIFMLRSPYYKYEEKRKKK
Description: as §1

[4] = system: optic nerve axons; details: for Number of optic nerve axons, Lasered eye, Mean / Number of optic nerve axons, Control eye, Mean / loss of optic nerve axons, Difference % (LC eye vs control eye): day 14; for Number of optic nerve axons, Control eye, Mean: contralateral eye; for loss of optic nerve axons, Difference % (LC eye vs control eye): vehicle 27.5% in text; for Axonal protection (%): vs vehicle group
Description: Neuroprotective preservation of visual function in glaucoma and other optic neuropathies depends not only on preservation of cell bodies, but also on maintaining connectivity between the eye and the brain. Connectivity is preserved by protecting RGC axons which make up the optic nerve. […] Unilateral induction of IOP elevation was performed twice, at day 0 and day 7. IOP increase was induced by 532 nm diode laser (Oculight® TX; Iridex) photocoagulation of episcleral veins, as previously described. IOP was measured with a TonoLab tonometer.
IOP was measured at baseline, and after laser photocoagulation on days 1, 4, 7, 8, and 14.
On day 14, rats were sacrificed by transcardial perfusion, first with 0.9% NaCl solution, then with 4% PFA in 0.1M phosphate buffer, pH 7.4. Eyes and optic nerves were collected for immunohistochemical analysis.
Optic nerves were postfixed in 4% PFA (in 0.1M phosphate buffer, pH 7.4), placed in 1% osmium, dehydrated in ascending alcohol concentrations, and placed in 1% uranyl acetate in 100% ethanol for 1 hour. Optic nerves were embedded in epoxy resin mixture at 60° C. for 48 hours and 1 μm sections prepared. Axon number was estimated using stereology.
High IOPs immediately after LC procedure could be associated with retinal ischemia, and low IOP's could indicate failure to establish the model.

[5] = system: BDNF secretion from B104 neuroblastoma cells; details: in-situ ELISA; Geva, et al. 2016; cited from earlier work
[6] = system: dry AMD; details: long-term oral administration; paper example
From the text: The pathological correlation for the decline of visual acuity is the progressive expansion of the degenerated area of the retina (i.e., geographic atrophy), specifically in the macula.

[7] = system: optic neuropathy; details: long-term oral administration; paper example
[8] = system: laser coagulation (LC) model of experimental glaucoma; details: for Area under curve (AUC) of IOP, Total Area: lasered eyes, vehicle 272, contralateral control 185
Description: (§2) Unilateral induction of IOP elevation was performed twice, at day 0 and day 7. IOP increase was induced by 532 nm diode laser (Oculight® TX; Iridex) photocoagulation of episcleral veins, as previously described. IOP was measured with a TonoLab tonometer.
(§3) IOP was measured at baseline, and after laser photocoagulation on days 1, 4, 7, 8, and 14 (FIG. 10).

[9] = system: Retinal Ganglion Cells (RGCs); details: for RGC Loss (%): day 41, OD (OHT) vs OS eye, mean±SEM, DDW control 43±6%; for RGC neuroprotection (%): vs DDW control
Description: In this model, sclerosis of the aqueous veins via retrograde introduction of hypertonic saline increases intraocular pressure (IOP). Hypertonic saline injection (HSI) was performed on day 0 and day 7 into the episcleral veins of the right eye of pigmented Brown Norway. Rats were sedated with ketamine and xylazine (40-80 and 5-10 mg/kg, respectively), kept warm and eyes moist to avoid desiccation during the procedure. Eye surface was treated with erythromycin (0.5%). On Days 0 and 7, hypertonic saline solution (250 μL, NaCl, 1.8-2.0M) was injected into the limbal vascular plexus via different episcleral veins in the OHT eye. For IOP measurement, corneas were anaesthetized with 0.5% proparacaine HCl ophthalmic solution and then IOP measured using a Tono-Pen Vet. Ten repeated readings were averaged from each eye. […] Over the course of the study, animals were clinically evaluated daily, and IOP and body weight measured weekly (FIG. 1).
The number of RGCs was quantified using immunofluorescent staining for the RGC marker brain-specific homeobox/POU domain protein 3A (Brn-3a), followed by image analysis. Eyes were immediately enucleated following CO2 euthanization and fixed in paraformaldehyde (PFA, 4%) at 4° C. for 24 hours, then dissected in PBS. Retinas were permeabilized in PBS+0.5% Triton X-100 for 15 minutes, frozen at −80° C. for 15 minutes, then rinsed in PBS-0.5% Triton. […] Four radial cuts were made in the retina and it was flat-mounted. Two regions of interest (medial and distal) were acquired in each quadrant (FIG. 3) with fluorescent microscopy, and RGCs counted using ImageJ.
The percent of RGC loss was calculated by comparing the number of RGC counts per retina in the OD eye to that in the OS eye from the same animal. […] RGC neuroprotection (%) in each animal was calculated as following: [100×((1−RGC Loss (%)/Average RGC Loss (%) in Control group))]. […] Representative images of RGC staining can be seen in FIG. 5.

[10] = system: retinitis pigmentosa; details: periodic oral administration; paper example
[11] = system: RGCs; details: topical to the HSI treated eye, paper example
[12] = system: wet AMD; details: long-term oral administration; paper example
[13] = system: glaucoma; details: long-term oral administration; paper example
[14] = system: RGCs; details: day 14; for number of RGCs per retinal area, Control eye, Mean: contralateral eye; for RGC Difference % (decrease, lasered vs control eye): vehicle 16.7%
Description: In Wistar rats, the laser coagulation (LC) model of experimental glaucoma was utilized.
as §2, §3
On day 14, rats were sacrificed by transcardial perfusion, first with 0.9% NaCl solution, then with 4% PFA in 0.1M phosphate buffer, pH 7.4. Eyes and optic nerves were collected for immunohistochemical analysis. The number of RGCs was quantified using immunofluorescent staining for RNA-binding protein with multiple splicing (RBPMS), an RGC-specific marker, and DAPI nuclear stain followed by stereological analysis of the entire retina (FIG. 11).

CCCN1CCC(O)(c2cccc(S(C)(=O)=O)c2)CC1 [Compound 1]
effect with pridopidine on BDNF secretion [1]: synergistic effect
pKi [2]: 6.43
pKi [3]: < 4.00

CCCN1CC[C@@H](c2cccc(S(C)(=O)=O)c2)[C@@H](O)C1 [Compound 4]
effect with pridopidine on BDNF secretion [1]: synergistic effect
pKi [2]: 5.54
pKi [3]: < 4.00

CCCN1CCC(c2cccc(S(C)(=O)=O)c2)CC1 [Pridopidine, 4-(3-(Methylsulfonyl)phenyl)-1-propylpiperidine]
Number of optic nerve axons, Lasered eye, Mean ([4]; 3 mg/kg oral daily): 358
Number of optic nerve axons, Control eye, Mean ([4]; 3 mg/kg oral daily): 394
loss of optic nerve axons, Difference % (LC eye vs control eye) ([4]; 3 mg/kg oral daily): 8.6%
Axonal protection (%) ([4]; 3 mg/kg oral daily): 69%
Number of optic nerve axons, Lasered eye, Mean ([4]; 30 mg/kg oral daily): 363
Number of optic nerve axons, Control eye, Mean ([4]; 30 mg/kg oral daily): 433
loss of optic nerve axons, Difference % (LC eye vs control eye) ([4]; 30 mg/kg oral daily): 15%
Axonal protection (%) ([4]; 30 mg/kg oral daily): 45%
Number of optic nerve axons, Lasered eye, Mean ([4]; 60 mg/kg oral daily): 365
Number of optic nerve axons, Control eye, Mean ([4]; 60 mg/kg oral daily): 395
loss of optic nerve axons, Difference % (LC eye vs control eye) ([4]; 60 mg/kg oral daily): 7.24% and 7.6%
Axonal protection (%) ([4]; 60 mg/kg oral daily): 74%
BDNF secretion in rat neuroblastoma cells [5]: dose dependent increase in BDNF secretion
efficacy in dry AMD patients [6]: effective in treating human patients with dry AMD
efficacy in optic neuropathy patients [7]: effective in treating human patients with optic neuropathy
Area under curve (AUC) of IOP, Total Area ([8]; 3 mg/kg oral daily): 255
Area under curve (AUC) of IOP, Total Area ([8]; 30 mg/kg oral daily): 289
Area under curve (AUC) of IOP, Total Area ([8]; 60 mg/kg oral daily): 295
effect on IOP of lasered eyes ([8]; 3, 30 and 60 mg/kg oral daily, one-way ANOVA, P≥0.26): no difference in the IOP of lasered eyes
RGC Loss (%) ([9]; 3 mg/kg oral daily): 25±7% and 25%
RGC neuroprotection (%) ([9]; 3 mg/kg oral daily): 42%
RGC Loss (%) ([9]; 30 mg/kg oral daily): 21±6% and 21%
RGC neuroprotection (%) ([9]; 30 mg/kg oral daily): 50%
RGC Loss (%) ([9]; 60 mg/kg oral daily): 7±9% and 7%
RGC neuroprotection (%) ([9]; 60 mg/kg oral daily): 83%
efficacy in retinitis pigmentosa patients [10]: effective in treating human patients with retinitis pigmentosa
viability of the RGCs and RGC loss ([11]; groups 2, 3 and 4 vs group 1): significantly increases viability of the RGCs and reduces RCG loss
protection of RGC axons [11]: protects RGC axons
efficacy in wet AMD patients [12]: effective in treating human patients with wet AMD
efficacy in glaucoma patients [13]: effective in treating human patients with glaucoma
number of RGCs per retinal area, Lasered eye, Mean ([14]; 3 mg/kg oral daily): 1315
number of RGCs per retinal area, Control eye, Mean ([14]; 3 mg/kg oral daily): 1404
RGC Difference % (decrease, lasered vs control eye) ([14]; 3 mg/kg oral daily): 5.2%
number of RGCs per retinal area, Lasered eye, Mean ([14]; 30 mg/kg oral daily): 1336
number of RGCs per retinal area, Control eye, Mean ([14]; 30 mg/kg oral daily): 1444
RGC Difference % (decrease, lasered vs control eye) ([14]; 30 mg/kg oral daily): 7.7%
number of RGCs per retinal area, Lasered eye, Mean ([14]; 60 mg/kg oral daily): 1198
number of RGCs per retinal area, Control eye, Mean ([14]; 60 mg/kg oral daily): 1417
RGC Difference % (decrease, lasered vs control eye) ([14]; 60 mg/kg oral daily): 13.9%
